Patent US11465972B2, “Inhibitors of oxidized low-density lipoprotein receptor 1 and methods of use thereof” (United States Government as represented by the Department …, priority 2015, dated 2022)
“Also recorded” adds a separate entry of the source.

These molecules were tested on HUVECs (assay: Dil-ox-LDL uptake by HUVECs (flow cytometry)). Settings: 200 nM compound.
Type: cell-based, human
Procedure: FIG. 3A, FIG. 3B, FIG. 3C and FIG. 3D depict the inhibitory effect of the lead compounds on Dil-ox-LDL uptake by HUVECs and CHO cells (measured by flow cytometry) and the effect of the lead compounds on ox-LDL-induced LOX-1 mRNA and protein expression. (FIG. 3A) (Upper Panel) Flow cytometry measurements using HUVECs in the presence of the five lead compounds (Mol-1-Mol-5), each a at 200 nM concentration. (Lower Panel) The percentage of internalized ox-LDL. Graphs show data as mean (±SD); n=4. *P<0.01 or <0.05 vs. control. (FIG. 3B) IC50 value for Mol-5. IC50 value (in nM) is based on inhibition of Dil-ox-LDL uptake in CHO cells overexpressing human LOX-1. Graphs show data as mean (±SD); n=5. *P<0.01 or <0.05 vs. control. (FIG. 3C) Western blotting assay showing LOX-1 protein expression in HUVECs following incubation with 200 nM Mol-1 to Mol-5 for 30 min, and subsequently exposure to 5 μg/mL ox-LDL for 6 hours. (FIG. 3D) The variation of LOX-1 mRNA expression levels at different concentrations of the compounds following exposure of HUVECs to 5 μg/mL ox-LDL. The concentrations are indicated on the X-axis and the LOX-1 mRNA levels are shown on the Y-axis. The plots for all the five molecules are shown in separate colors. Graphs show data as mean (±SD); n=3. *P<0.01 vs. control; #P<0.01 vs. ox-LDL group.
For further characterization, human endothelial cells and fluorescently-labeled Dil-ox-LDL were used for measuring initiation of atherogenic process based on interaction of vascular wall with ox-LDL. Ox-LDL uptake by human umbilical vein endothelial cells (HUVECs) was measured after exposure to 200 nM of each compound using flow cytometry. […] The dose response to modulation of ox-LDL uptake by Mol-5 (0, 20, 200 and 2000 nM) was also measured in CHO cells overexpressing human LOX-1. […] A second dose response curve was conducted to narrow in on the effect of lower concentrations of Mol-5 on ox-LDL uptake (FIG. 6A). Using this information the EC50 was estimated to be […] (FIG. 6B).
The primary HUVECs were purchased from ATCC (Manassas, Va.) and cultured in vascular cell basal medium with supplements (including 10 mL fetal bovine serum, 10 mM L-glutamine, 0.5 tg hydrocortisone hem isuccinate, 25 tg ascorbic acid, 2.5 ng rhVEGF, 2.5 ng rhEGF, 2.5 ng rh FGF, 7.5 ng rhIGF-1 and 0.375 units heparin sulfate). Cells from passages 3 and 4 were used in this study.
HUVECs were plated into 6-well plates and cultured until the cells reached 70% confluence. The cells were exposed to […] Dil-ox-LDL for 30 min after treatment with 200 nM of each of 5 molecules for 30 min, and then washed with PBS for 3 times. After washing, the cells were digested with trypsin and washed with PBS, and suspended in 400 tL PBS, and analyzed with a flow-cytometer (Becton Dickinson, Mountain View, Calif.). For further confirm the inhibitory effects of Mol-5 on Dil-ox-LDL uptake, we also measured Dil-ox-LDL uptake by CHO cells after exposure to […] Mol-5 for 30 min. The CHO cells were stably transfected with human LOX-1 cDNA.

Structure (SMILES) | effect on ox-LDL uptake by HUVECs (in words)
CCOCCCNC(=O)CCN1C(=O)COc2ccccc21 [Mol-1] | moderate inhibitory effect
CC(C)(C)C(=O)NCCc1nc2ccccc2n1Cc1ccccc1F [Mol-2] | no significant effect
CCCn1c(CCNC(=O)CCCO)nc2ccccc21 [Mol-4] | significantly and potently inhibited
Cc1cc(C)n(CC(O)COc2ccccc2)n1 (stereo not shown) [Mol-5, 1-(3,5-dimethyl-1H-pyrazol-1-yl)-3-phenoxypropan-2-ol] | significantly and potently inhibited; also recorded: maximum inhibitory effect

Same assay, conditions: 200 nM concentration

Structure (SMILES) | reduction of the uptake of ox-LDL by HUVECs
CCOCCCNC(=O)CCN1C(=O)COc2ccccc21 [Mol-1] | about 35%
CCCn1c(CCNC(=O)CCCO)nc2ccccc21 [Mol-4] | 65%
Cc1cc(C)n(CC(O)COc2ccccc2)n1 (stereo not shown) [Mol-5, 1-(3,5-dimethyl-1H-pyrazol-1-yl)-3-phenoxypropan-2-ol] | 80%

What follows are molecules tested against human LOX-1 (Homo sapiens, UniProt P78380) (assay: Thermal shift assay with purified LOX-1 protein). Settings: LOX-1 protein 4 μM, ligand 50 μM; shifts in Celsius.
Type: binding
Set-up: It encodes for 147 amino acids for the LOX-1 fragment (residues 136-273); made in house; host or cells: E. coli BL21 (DE3), co-expressed with DsbC
Text: FIG. 2A, FIG. 2B and FIG. 2C depict the docking of the 5 lead compounds and the thermal denaturation assay: (FIG. 2A) The figure depicts the docking of the 5 lead compounds in the binding pocket of LOX-1. LOX-1 is shown as a ribbon model with one monomer in magenta and the other in blue. The compounds are shown as stick models in separate colors. (FIG. 2B) Hydrogen bonding interactions of the compounds as they dock to LOX-1. (FIG. 2C) The measured thermal shifts (in Celsius) are depicted for all five molecules. The solutions contained LOX-1 protein at 4 μM concentration. The ligand concentrations were 50 μM.
As the next step, a protein assay was performed to assess the interaction of the lead compounds with LOX-1 protein for an additional confirmation of the binding to LOX1. The extracellular domain of LOX-1 was expressed and the protein was purified. Using the purified protein, a thermal shift assay was performed. The technique involves measuring thermal denaturation temperatures of the protein in the presence and absence of inhibitors. A larger shift in thermal denaturation is indicative of a tight binding of the ligand to the protein.
In short, the thermal shift assay was performed using a real-time PCR detection system with the fluorescent dye sypro orange to monitor protein unfolding. Fluorescence increases upon protein unfolding because sypro orange has higher quantum in lower dielectric medium and low quantum in higher dielectric medium. During the thermal shift assay a protein exposes the hydrophobic region which corresponds to a lower dielectric environment. The thermal shift assay instrument contains accurate temperature control devices and a CCD detector for simultaneous imaging of fluorescence changes in the microplate. The typical reaction volume of a thermal shift assay is 20 μl, which includes the protein solution, the test compound solution, and the sypro orange. The temperature in the real-time PCR machine during the thermal shift assay was ramped 0.5° C./minute till 100° C.
The C-terminal domain of LOX-1 was expressed by using the protocols reported earlier^12. As this domain contains several disulfide bridges, it was co-expressed with DsbC, a Chaperone disulfide isomerase. The genes were custom synthesized by Genscript (Piscataway, N.J.) using gene map described in Park el al^12. It encodes for 147 amino acids for the LOX-1 fragment (residues 136-273) and 236 amino acids for DsbC. The gene was incorporated into a pET15b vectors by Genscript. The vectors were then transformed into Dh5α cells for amplification and BL21 (DE3) E. coli (Novagen) cells for expression. The proteins were expressed by adding 0.4 mM isopropyl β-D-thiogalactoside in E. coli cells grown in LB medium containing kanamycin, tetracycline, and carbenicillin at 23° C., with 250 rpm agitation, for 20 h. The protein was purified using a nickel-nitrilotriacetic acid column (Qiagen, Valencia, Calif.). And then, the protein samples were concentrated to 10 mg/ml.
LOX-1 protein was incubated with fluorescent dye Sypro Orange (Invitrogen/Life Technologies, Grand Island, N.Y.) and the thermal unfolding of the LOX-1 protein was monitored by measuring the fluorescence using Bio-Rad Real Time PCR machine. We measured the melting temperatures in the absence and presence of the inhibitors 4 tM of LOX-1 protein was incubated with Sypro Orange and heated in stepwise increments of 0.5° C. per min from 25-99° C. The wavelength for excitation was set to 490 and emission was set to 575 nm for Sypro Orange. Fluorescence was measured after every minute for each 0.5° C. increase.

thermal shift of LOX-1 protein [°] | Structure (SMILES)
10 | CCCn1c(CCNC(=O)CCCO)nc2ccccc21 [Mol-4]
4 | Cc1cc(C)n(CC(O)COc2ccccc2)n1 (stereo not shown) [Mol-5, 1-(3,5-dimethyl-1H-pyrazol-1-yl)-3-phenoxypropan-2-ol]

Same assay, conditions: differential scanning fluorimetry

thermal shift (in words) | Structure (SMILES)
did not show measurable shifts | CCOCCCNC(=O)CCN1C(=O)COc2ccccc21 [Mol-1]
did not show measurable shifts | CC(C)(C)C(=O)NCCc1nc2ccccc2n1Cc1ccccc1F [Mol-2]
significant thermal shift | CCCn1c(CCNC(=O)CCCO)nc2ccccc21 [Mol-4]
significant thermal shift | Cc1cc(C)n(CC(O)COc2ccccc2)n1 (stereo not shown) [Mol-5, 1-(3,5-dimethyl-1H-pyrazol-1-yl)-3-phenoxypropan-2-ol]
